The values that follow come from patent US9540343B2 (Gilead Sciences, Inc., priority 2011, dated 2017).

One assay has as its system HIV-IIIb. Kind of assay: Test A: Antiviral assay in MT4 cells. The assay is classed as cell-based, HIV-1. Conditions: Human immunodeficiency virus 1, IIIB, MT4, 120 h, read-out: % inhibition at 2 μM, percent inhibition of virus-induced cell killing, from dose response curve at 2 uM drug; MT-4 cells infected with HIV-IIIb, 5 days, CellTiter-Glo.
For `NC(=O)c1cc(-c2cccnc2[C@H](Cc2cc(F)cc(F)c2)NC(=O)Cn2nc(C(F)(F)F)c3c2C[C@H]2C[C@@H]32)ccc1F` (single isomer, unassigned) [Example 173], the inhibition at 2 µM was found to be 94%.
On the same count and under the same terms, the value for `NC(=O)c1cc(-c2cccnc2[C@H](Cc2cc(F)cc(F)c2)NC(=O)Cn2nc(C(F)(F)F)c3c2C[C@@H]2C[C@H]32)ccc1F` (single isomer, unassigned) [Example 174] was 71%; that for `NC(=O)c1cc(-c2cccnc2[C@H](Cc2cc(F)cc(F)c2)NC(=O)Cn2nc(C(F)F)c3c2C(F)(F)C2CC32)ccc1F` (single isomer, unassigned) [Example 215] was 80%.
For the compound `NC(=O)c1cccc(-c2cccnc2[C@H](Cc2cc(F)cc(F)c2)NC(=O)Cc2c[nH]c3ccc(O)cc23)c1` [Example 39, (S)-3-(2-(2-(3,5-difluorophenyl)-1-(2-(5-hydroxy-1H-indol-3-yl)acetamido)ethyl)pyridin-3-yl)benzamide], the inhibition at 2 µM is 99%.
On the same count and under the same terms, the value for `NC(=O)c1cccc(-c2cccnc2[C@H](Cc2cc(F)cc(F)c2)NC(=O)Cc2c[nH]c3ccc(F)cc23)c1` [Example 50D, (S)-3-(2-(2-(3,5-difluorophenyl)-1-(2-(5-fluoro-1H-indol-3-yl)acetamido)ethyl)pyridin-3-yl)benzamide] was 106%; that for `NC(=O)c1cc(-c2cccnc2[C@H](Cc2cc(F)cc(F)c2)NC(=O)Cn2nc(C(F)F)c3c2C(F)(F)C2CC32)ccc1F` (stereo partly drawn) [Example 60H, 5-(2-((1S)-1-(2-(3-(difluoromethyl)-5,5-difluoro-3b,4,4a,5-tetrahydro-1H-cyclopropa[3,4]cyclopenta[1,2-c]pyrazol-1-yl)acetamido)-2-(3,5-difluorophenyl)ethyl)pyridin-3-yl)-2-fluorobenzamide] was 97%.
Take `NC(=O)c1cc(-c2cccnc2[C@H](Cc2cc(F)cc(F)c2)NC(=O)Cn2nc(C(F)F)c3c2C2CCC3C2)ccc1F` (stereo partly drawn) [Example 83, (S)-5-(2-(2-(3,5-difluorophenyl)-1-(2-(4,5,6,7-tetrahydro-3-difluoromethyl-4,7-(methano)indazol-1-yl)acetamido)ethyl)pyridin-3-yl)-2-fluorobenzamide]: the inhibition at 2 µM is 92%.
Same read-out and setting: the value for `NC(=O)c1cc(-c2cccnc2[C@H](Cc2cc(F)cc(F)c2)NC(=O)Cn2nc(C(F)(F)F)c3c2CCCC3(F)F)ccc1F` [Example 102D, (S)-5-(2-(1-(2-(4,4-difluoro-3-(trifluoromethyl)-4,5,6,7-tetrahydro-1H-indazol-1-yl)acetamido)-2-(3,5-difluorophenyl)ethyl)pyridin-3-yl)-2-fluorobenzamide] was 50%; that for `NC(=O)c1cc(-c2cccnc2[C@H](Cc2cc(F)cc(F)c2)NC(=O)Cn2nc(C(F)(F)F)c3c2CCOC3)ccc1F` [Example 112B, (S)-5-(2-(2-(3,5-difluorophenyl)-1-(2-(3-(trifluoromethyl)-6,7-dihydropyrano[4,3-c]pyrazol-1(4H)-yl)acetamido)ethyl)pyridin-3-yl)-2-fluorobenzamide] was 28%; that for `NC(=O)c1cc(-c2cccnc2[C@H](Cc2cc(F)cc(F)c2)NC(=O)Cn2nc(C(F)(F)F)c3c2CC2CC32)ccc1F` (stereo partly drawn) [Example 122G, 5-(2-((1S)-2-(3,5-difluorophenyl)-1-(2-(3-(trifluoromethyl)-3b,4,4a,5-tetrahydro-1H-cyclopropa[3,4]cyclopenta[1,2-c]pyrazol-1-yl)acetamido)ethyl)pyridin-3-yl)-2-fluorobenzamide] was 101%.
Same read-out and setting: the value for `NC(=O)c1cc(-c2cccnc2[C@H](Cc2cc(F)cc(F)c2)NC(=O)Cn2nc(C(F)(F)F)c3c2CCC3)ccc1F` [Example 134, (S)-5-(2-(2-(3,5-difluorophenyl)-1-(2-(3-(trifluoromethyl)-5,6-dihydrocyclopenta[c]pyrazol-1(4H)-yl)acetamido)ethyl)pyridin-3-yl)-2-fluorobenzamide] was 98%; that for `NC(=O)c1cc(-c2cccnc2[C@H](Cc2cc(F)cc(F)c2)NC(=O)Cn2nc(C(F)(F)F)c3c2C2CC2C3)ccc1F` (stereo partly drawn) [Example 169E, 5-(2-((1S)-2-(3,5-difluorophenyl)-1-(2-(3-(trifluoromethyl)-4,4-a,5,5a-tetrahydro-1H-cyclopropa[4,5]cyclopenta[1,2-c]pyrazol-1-yl)acetamido)ethyl)pyridin-3-yl)-2-fluorobenzamide] was 94%.
Same read-out and setting: the result for `NC(=O)c1cc(-c2cccnc2[C@H](Cc2cc(F)cc(F)c2)NC(=O)Cn2nc(C(F)(F)F)c3c2C(F)(F)C2CC32)ccc1F` (stereo partly drawn) [Example 181E, 5-(2-((1S)-1-(2-(5,5-difluoro-3-(trifluoromethyl)-3b,4,4a,5-tetrahydro-1H-cyclopropa[3,4]cyclopenta[1,2-c]pyrazol-1-yl)acetamido)-2-(3,5-difluorophenyl)ethyl)pyridin-3-yl)-2-fluorobenzamide] reads 99%; that for `NC(=O)c1cc(-c2cccnc2[C@H](Cc2cc(F)cc(F)c2)NC(=O)Cn2nc(C(F)(F)F)c3ccccc32)ccc1F` [Example 250, (S)-5-(2-(2-(3,5-difluorophenyl)-1-(2-(3-(trifluoromethyl)-1H-indazol-1-yl)acetamido)ethyl)pyridin-3-yl)-2-fluorobenzamide], 19%; that for `O=C(Cc1c[nH]c2ccc(O)cc12)N[C@H](Cc1cc(F)cc(F)c1)c1ncncc1-c1ccc(Cl)cc1` [Example 284, (R)—N-(1-(5-(4-chlorophenyl)pyrimidin-4-yl)-2-(3,5-difluorophenyl)ethyl)-2-(5-hydroxy-1H-indol-3-yl)acetamide], 50%.
`NC(=O)c1cc(-c2cccnc2[C@H](Cc2cc(F)cc(F)c2)NC(=O)Cn2nc(C(F)(F)F)c3c2C(F)(F)CCC3)ccc1F` [Example 311B, (S)-5-(2-(1-(2-(7,7-difluoro-3-(trifluoromethyl)-4,5,6,7-tetrahydro-1H-indazol-1-yl)acetamido)-2-(3,5-difluorophenyl)ethyl)pyridin-3-yl)-2-fluorobenzamide]: the inhibition at 2 µM is 97%.
Take `O=C(Cc1c[nH]c2ccc(O)cc12)N[C@@H](Cc1cc(F)cc(F)c1)c1ncncc1-c1ccc(Cl)cc1` [Example 316, (S)—N-(1-(5-(4-chlorophenyl)pyrimidin-4-yl)-2-(3,5-difluorophenyl)ethyl)-2-(5-hydroxy-1H-indol-3-yl)acetamide]: the inhibition at 2 µM was 100%.
The same measure, in the same setting: the result for `NC(=O)c1cc(-c2cccnc2[C@H](Cc2cc(F)cc(F)c2)NC(=O)Cn2nc(C(F)F)c3c2C(F)(F)CCC3(F)F)ccc1F` [Example 344, (S)-5-(2-(1-(2-(3-(difluoromethyl)-4,4,7,7-tetrafluoro-4,5,6,7-tetrahydro-1H-indazol-1-yl)acetamido)-2-(3,5-difluorophenyl)ethyl)pyridin-3-yl)-2-fluorobenzamide] reads 93%; that for `NC(=O)c1cc(-c2cccnc2[C@H](Cc2cc(F)cc(F)c2)NC(=O)Cn2nc(C(F)(F)F)c3c2CNCC3)ccc1F` [Example 352, (S)-5-(2-(2-(3,5-difluorophenyl)-1-(2-(3-(trifluoromethyl)-4,5,6,7-tetrahydro-1H-pyrazolo[3,4-c]pyridin-1-yl)acetamido)ethyl)pyridin-3-yl)-2-fluorobenzamide], 16%.
The same measure, in the same setting: the result for `NC(=O)c1cccc(-c2cccnc2[C@H](Cc2cc(F)cc(F)c2)NC(=O)Cn2ccc3ccccc32)c1` [Example 426, (S)-3-(2-(1-(2-(1H-indol-1-yl)acetamido)-2-(3,5-difluorophenyl)ethyl)pyridin-3-yl)benzamide] reads 19%; that for `O=C(Cc1c[nH]c2ccc(O)cc12)NC(Cc1cc(F)cc(F)c1)c1nccnc1-c1ccc(Cl)cc1` (stereo not drawn) [Example 443I, N-(1-(3-(4-chlorophenyl)pyrazin-2-yl)-2-(3,5-difluorophenyl)ethyl)-2-(5-hydroxy-1H-indol-3-yl)acetamide], 82%; that for `NC(=O)c1cc(-c2cccnc2[C@H](Cc2cc(F)cc(F)c2)NC(=O)Cn2ccc(C(F)(F)F)n2)ccc1F` [Example 455, (S)-5-(2-(2-(3,5-difluorophenyl)-1-(2-(3-(trifluoromethyl)-1H-pyrazol-1-yl)acetamido)ethyl)pyridin-3-yl)-2-fluorobenzamide], 4%.
The same measure, in the same setting: the result for `NC(=O)c1cc(-c2cccnc2[C@H](Cc2cc(F)cc(F)c2)NC(=O)Cn2nc(C(F)(F)F)c3c2C2CC2C3(F)F)ccc1F` (stereo partly drawn) [Example 462J, 5-(2-((1S)-1-(2-(4,4-difluoro-3-(trifluoromethyl)-4,4-a,5,5a-tetrahydro-1H-cyclopropa[4,5]cyclopenta[1,2-c]pyrazol-1-yl)acetamido)-2-(3,5-difluorophenyl)ethyl)pyridin-3-yl)-2-fluorobenzamide] reads 2%.

Staying with this assay, now noted: percent inhibition of virus-induced cell killing, from dose response curve at 2 uM drug; MT-4 cells infected with HIV-IIIb, 5 days, CellTiter-Glo.
On to `NC(=O)c1cc(-c2cccnc2[C@H](Cc2cc(F)cc(F)c2)NC(=O)Cn2nc(C(F)F)c3c2C(F)(F)C2CC32)ccc1F` (single isomer, unassigned) [Example 216], for which the “% inhibition at 2 μM” value is reported as 86%.
The same measure, in the same setting: the value for `NC(=O)c1cc(-c2cccnc2[C@H](Cc2cc(F)cc(F)c2)NC(=O)Cn2nc(C(F)(F)F)c3c2C(F)(F)C2CC32)ccc1F` (single isomer, unassigned) [Example 449] was 94%; that for `NC(=O)c1cc(-c2cccnc2[C@H](Cc2cc(F)cc(F)c2)NC(=O)Cn2nc(C(F)(F)F)c3c2C(F)(F)C2CC32)ccc1F` (single isomer, unassigned) [Example 450] was 33%.
Same read-out and setting: the value for `NC(=O)c1cc(-c2cccnc2[C@H](Cc2cc(F)cc(F)c2)NC(=O)Cn2nc(C(F)(F)F)c3c2[C@@H]2C[C@@H]2C3)ccc1F` [Example 187, 5-(2-((S)-2-(3,5-difluorophenyl)-1-(2-((4aR,5aR)-3-(trifluoromethyl)-4,4-a,5,5a-tetrahydro-1H-cyclopropa[4,5]cyclopenta[1,2-c]pyrazol-1-yl)acetamido)ethyl)pyridin-3-yl)-2-fluorobenzamide] was 31%.
